According to patent EP4291552B1, “MODULATORS OF COMPLEX I” (Boehringer Ingelheim International GmbH, priority 2021, dated 2022):

Target: Complex I (Bos taurus, UniProt P25708)
Experiment: Determination of Complex I mediated ROS-inhibition (CI)
Format: biochemical, bovine
Conditions: read-out: CI IC50

Row | SMILES | IC50
1 | CN1[C@@H]2CC[C@H]1CC(Nc1ccc3c(c1)/C(=C1\COCCN1)C(=O)N3C1CCOCC1)C2 (some centres unmarked) [Compound 101] | 202 nM
2 | CC(C)N1C(=O)/C(=C2/COCCN2)c2cc(NC3C[C@H]4CC[C@@H](C3)N4C)ccc21 (some centres unmarked) [Compound 123] | 916 nM
3 | CN1C(=O)/C(=C2/COCCN2)c2cc(NC3CC4CCC(C3)N4C)ccc21 (centres unmarked) [Compound 131] | 189 nM

Same assay, conditions: read-out: CI IC50; Complex I purified from bovine heart; ROS detected via Amplex Red/horse radish peroxidase; 8 point concentration-response

Row | SMILES | IC50
4 | CC(C)Nc1ccc2c(c1)/C(=C1\CCOCCN1)C(=O)N2C1CCOCC1 [Compound 30] | 195 nM

System: mice neuroblastoma cells (HT-22)
Experiment: Determination of Cellular Protection (HT22)
Conditions: Mus musculus, HT-22, 16 h, read-out: HT22 IC50

Row | SMILES | IC50
5 | CC(C)Nc1ccc2c(c1)/C(=C1\CCOCCN1)C(=O)N2C1CCOCC1 [Compound 30] | 135 nM
6 | CC1COC/C(=C2/C(=O)N(C3CCOCC3)c3ccc(N4C(C)CCC4C)cc32)N1 (centres unmarked) [Compound 93] | 101 nM
7 | CC(C)N1C(=O)/C(=C2/COCCN2)c2cc(NC3CCCC3)ccc21 [Compound 94] | 27 nM
8 | CC(C)C(C)Nc1ccc2c(c1)/C(=C1\COCCN1)C(=O)N2C(C)C (centres unmarked) [Compound 95] | 6 nM
9 | CC(C)N1CCC(Nc2ccc3c(c2)/C(=C2\COCCN2)C(=O)N3C(C)C)CC1 [Compound 96] | 41 nM
10 | CC(Nc1ccc2c(c1)/C(=C1\COCCN1)C(=O)N2C(C)C)C1CC1 (centres unmarked) [Compound 97] | 17 nM
11 | CC(C)N1C(=O)/C(=C2/COCCN2)c2cc(NC3COC3)ccc21 [Compound 98] | 166 nM
12 | COCC(C)Nc1ccc2c(c1)/C(=C1\COCCN1)C(=O)N2C1CCOCC1 (centres unmarked) [Compound 99] | 163 nM
13 | CC(Nc1ccc2c(c1)/C(=C1\COCCN1)C(=O)N2C1CCOCC1)c1cccnc1 (centres unmarked) [Compound 100] | 397 nM
14 | CN1[C@@H]2CC[C@H]1CC(Nc1ccc3c(c1)/C(=C1\COCCN1)C(=O)N3C1CCOCC1)C2 (some centres unmarked) [Compound 101] | 369 nM
15 | CC1CCCC1Nc1ccc2c(c1)/C(=C1\COCCN1)C(=O)N2C1CCOCC1 (centres unmarked) [Compound 102] | 3 nM
16 | O=C1/C(=C2/COCCN2)c2cc(NCC3CC3)ccc2N1C1CCOCC1 [Compound 103] | 105 nM
17 | CN(C)c1ccc2c(c1)/C(=C1\CCCCCN1)C(=O)N2C [Compound 105] | 91 nM
18 | CN(C)c1ccc2c(c1)/C(=C1/NCCN1c1ccccc1)C(=O)N2C [Compound 106] | 142 nM
19 | CN1C(=O)/C(=C2/CCOCCN2)c2cc(N3CCCC3)ccc21 [Compound 107] | 69 nM
20 | CN(C)c1ccc2c(c1)/C(=C1\CCN(C(=O)OCc3ccccc3)CCN1)C(=O)N2C [Compound 108] | 128 nM
21 | CC(C)N1CCN/C(=C2\C(=O)N(C)c3ccc(N4CCCC4)cc32)CC1 [Compound 110] | 19 nM
22 | CC(=O)N1CCN/C(=C2\C(=O)N(C3CCOCC3)c3ccc(NC(C)C)cc32)C1 [Compound 111] | 249 nM
23 | O=C1C(=C2CCOCC2)c2cc(N3CCCC3)ccc2N1C1CCOCC1 [Compound 112] | 86 nM
24 | CC(C)N1C(=O)/C(=C2/CCCCN2)c2cc(N(C3CCC3)C3CCC3)ccc21 [Compound 113] | 18 nM
25 | CC(C)Nc1ccc2c(c1)/C(=C1\CN(C3COC3)CCN1)C(=O)N2C(C)C [Compound 114] | 104 nM

Row | SMILES | IC50
26 | CC(C)Nc1ccc2c(c1)/C(=C1\CCCN1C)C(=O)N2C(C)C [Compound 115] | 30 nM
27 | CC(C)N1C(=O)C(=C2CCOCC2)c2cc(NC3CCCC3)ccc21 [Compound 116] | 9 nM
28 | O=C1/C(=C2/COCCN2)c2cc(N3CCCC3)ccc2N1C1CCOCC1 [Compound 117] | 22 nM
29 | CCOC(=O)N1CCC(N2C(=O)/C(=C3/COCCN3)c3cc(N4CCCC4)ccc32)CC1 [Compound 118] | 33 nM
30 | COCC(C)N1C(=O)/C(=C2/COCCN2)c2cc(N3CCC(O)C3)ccc21 (centres unmarked) [Compound 119] | 439 nM
31 | O=C1/C(=C2/CCOCCN2)c2cc(NC3CCC3)ccc2N1C1CCOCC1 [Compound 120] | 51 nM
32 | O=C1/C(=C2/CCN(C3COC3)CCN2)c2cc(N3CCCC3)ccc2N1C1CCOCC1 [Compound 121] | 192 nM
33 | CC(C)N1CCC(N2C(=O)/C(=C3/COCCN3)c3cc(N(C(C)C)C(C)C)ccc32)CC1 [Compound 122] | 944 nM
34 | CC(C)N1C(=O)/C(=C2/COCCN2)c2cc(NC3C[C@H]4CC[C@@H](C3)N4C)ccc21 (some centres unmarked) [Compound 123] | 17 nM
35 | CC1CCCC1Nc1ccc2c(c1)/C(=C1\COCCN1)C(=O)N2C(C)C (centres unmarked) [Compound 124] | 15 nM
36 | CC1OCCC1Nc1ccc2c(c1)/C(=C1\COCCN1)C(=O)N2C(C)C (centres unmarked) [Compound 125] | 112 nM
37 | CC(Nc1ccc2c(c1)/C(=C1\COCCN1)C(=O)N2C(C)C)c1cncnc1 (centres unmarked) [Compound 126] | 179 nM
38 | CC(C)N1C(=O)/C(=C2/COCCN2)c2cc(NCC3(C)COC3)ccc21 [Compound 127] | 176 nM
39 | CC(C)N1C(=O)/C(=C2/CCOCCN2)c2cc(N3C(C)CCC3C)ccc21 (centres unmarked) [Compound 128] | 47 nM
40 | CC(C)N1C(=O)/C(=C2/CCOCCN2)c2cc(N3CCCC3)ccc21 [Compound 129] | 23 nM
41 | CC(C)N1C(=O)/C(=C2/COCCN2)c2cc(N3CCCC3)ccc21 [Compound 130] | 45 nM
42 | CN1C(=O)/C(=C2/COCCN2)c2cc(NC3CC4CCC(C3)N4C)ccc21 (centres unmarked) [Compound 131] | 111 nM
43 | O=C1/C(=C2/COCCN2)c2cc(NC3CCC3)ccc2N1C1CCOCC1 [Compound 132] | 21 nM
44 | CC(C)Nc1ccc2c(c1)/C(=C1\CCCCN1)C(=O)N2C(C)C [Compound 133] | 23 nM
45 | CC(C)Nc1ccc2c(c1)/C(=C1\CN(C3CCOCC3)CCN1)C(=O)N2C(C)C [Compound 134] | 44 nM
46 | CC(C)Nc1ccc2c(c1)/C(=C1\COCCN1)C(=O)N2C1COC1 [Compound 135] | 158 nM

Row | SMILES | IC50
47 | CCC(CC)Nc1ccc2c(c1)/C(=C1\COCCN1)C(=O)N2C1COC1 [Compound 136] | 18 nM
48 | COCC(C)Nc1ccc2c(c1)/C(=C1\COCCN1)C(=O)N2C1COC1 (centres unmarked) [Compound 137] | 886 nM
49 | CC(C)Nc1ccc2c(c1)/C(=C1\COC3(CCN(C(C)C)CC3)CN1)C(=O)N2C(C)C [Compound 138] | 6 nM
50 | CC(C)N1CCC2(CC1)CN/C(=C1\C(=O)N(C(C)C)c3ccc(N4C(C)CCC4C)cc31)CO2 (centres unmarked) [Compound 139] | 18 nM
51 | O=C1/C(=C2/CCOCCN2)c2cc(NC3CCOC3)ccc2N1C1CCOCC1 (centres unmarked) [Compound 140] | 524 nM
52 | O=C1/C(=C2/COCCCN2)c2cc(NC3CCOC3)ccc2N1C1CCOCC1 (centres unmarked) [Compound 141] | 646 nM
53 | CC1CCC(C)N1c1ccc2c(c1)/C(=C1\COCCCN1)C(=O)N2C1CCOCC1 (centres unmarked) [Compound 142] | 94 nM
54 | CC(Nc1ccc2c(c1)/C(=C1\COCCN1)C(=O)N2C(C)C)c1ccncc1 (centres unmarked) [Compound 143] | 110 nM
55 | CC(Nc1ccc2c(c1)/C(=C1\COCCN1)C(=O)N2C(C)C)c1nccs1 (centres unmarked) [Compound 144] | 85 nM
56 | CC(C)N1C(=O)/C(=C2/COCCN2)c2cc(NCC(C)(C)C)ccc21 [Compound 145] | 4 nM
57 | CC(Nc1ccc2c(c1)/C(=C1\COCCN1)C(=O)N2C1CCOCC1)c1cnccn1 (centres unmarked) [Compound 146] | 211 nM
58 | CC(Nc1ccc2c(c1)/C(=C1\COCCN1)C(=O)N2C1CCOCC1)c1cncnc1 (centres unmarked) [Compound 147] | 422 nM
59 | CC(Nc1ccc2c(c1)/C(=C1\COCCN1)C(=O)N2C1CCOCC1)C1CCC1 (centres unmarked) [Compound 148] | 16 nM
60 | COC1COCCC1Nc1ccc2c(c1)/C(=C1\COCCN1)C(=O)N2C1CCOCC1 (centres unmarked) [Compound 149] | 2940 nM
61 | CN1CCC(Nc2ccc3c(c2)/C(=C2\COCCN2)C(=O)N3C2CCOCC2)CC1 [Compound 150] | 286 nM
62 | O=C1/C(=C2/COCCN2)c2cc(NCC3CCOC3)ccc2N1C1CCOCC1 (centres unmarked) [Compound 151] | 184 nM
63 | CN1C(=O)/C(=C2/CCN(C(=O)OCc3ccccc3)CCN2)c2cc(N3CCCC3)ccc21 [Compound 152] | 47 nM
64 | CN(C)c1ccc2c(c1)/C(=C1\CCCN1)C(=O)N2C1CCN(C(=O)C(F)(F)F)CC1 [Compound 153] | 170 nM
65 | CN1C(=O)/C(=C2/COCCN2)c2cc(NC3CCC3)ccc21 [Compound 154] | 18 nM
66 | CN1C(=O)/C(=C2/CCN(C3CCOC3)CCN2)c2cc(N3CCCC3)ccc21 (centres unmarked) [Compound 155] | 214 nM
67 | CC1CCC(C)N1c1ccc2c(c1)/C(=C1\COCCN1)C(=O)N2C1CCOCC1 (centres unmarked) [Compound 156] | 71 nM

Row | SMILES | IC50
68 | CC(C)N1C(=O)C(=C2CCOCC2)c2cc(N)ccc21 [Compound 157] | 1660 nM
69 | CC(C)N1C(=O)/C(=C2/CCCCN2)c2cc(N3CCOCC3)ccc21 [Compound 158] | 2070 nM
70 | CC(=O)N1CCN/C(=C2\C(=O)N(C(C)C)c3ccc(NC(C)C)cc32)C1 [Compound 159] | 80 nM
71 | CC(C)N1C(=O)C(=C2CCOCC2)c2cc(NC3CCOC3)ccc21 (centres unmarked) [Compound 160] | 471 nM
72 | CC(C)N1C(=O)/C(=C2/CCCN2C)c2cc(NC3CCC3)ccc21 [Compound 161] | 20 nM
73 | CC1CCC(C)N1c1ccc2c(c1)/C(=C1\COCCN1)C(=O)N2C1CCOC1 (centres unmarked) [Compound 162] | 61 nM
74 | CC(C)Nc1ccc2c(c1)/C(=C1\COCCN1)C(=O)N2C1CCOC1 (centres unmarked) [Compound 163] | 52 nM
75 | CC(C)Nc1ccc2c(c1)/C(=C1\CCN(C(C)C)CCN1)C(=O)N2C1CCOCC1 [Compound 164] | 30 nM
76 | CC(C)Nc1ccc2c(c1)/C(=C1\CC3(CN1)COC3)C(=O)N2C1CCOCC1 [Compound 165] | 253 nM
77 | CC(C)N1C(=O)/C(=C2/COCCN2)c2cc(N3CCOCC3)ccc21 [Compound 166] | 649 nM
78 | CC(C)Nc1ccc2c(c1)/C(=C1\COCCCN1)C(=O)N2C1CCOCC1 [Compound 167] | 134 nM
79 | O=C1/C(=C2/COCCN2)c2cc(NC3CCOC3)ccc2N1C1CCOC1 (centres unmarked) [Compound 168] | 439 nM
80 | O=C(CCO)Nc1ccc2c(c1)/C(=C1\COCCN1)C(=O)N2C1CCOC1 (centres unmarked) [Compound 169] | 336 nM
81 | CC(=O)N1CC[C@H](N2C(=O)/C(=C3/COCCN3)c3cc(NC(C)C)ccc32)C1 [Compound 170] | 159 nM
82 | CCC(CC)Nc1ccc2c(c1)/C(=C1\COCCN1)C(=O)N2C(C)C [Compound 171] | 23 nM
83 | CC(=O)N1CCC(Nc2ccc3c(c2)/C(=C2\COCCN2)C(=O)N3C(C)C)CC1 [Compound 172] | 279 nM
84 | CC(C)CNc1ccc2c(c1)/C(=C1\COCCN1)C(=O)N2C(C)C [Compound 173] | 32 nM
85 | CC1OCCC1Nc1ccc2c(c1)/C(=C1\COCCN1)C(=O)N2C1CCOCC1 (centres unmarked) [Compound 174] | 143 nM
86 | O=C1/C(=C2/COCCN2)c2cc(NC3COC3)ccc2N1C1CCOCC1 [Compound 175] | 1190 nM
